# Test results taken from US20030026781A1, “Compositions and methods for regulating endogenous inhibitor of ATP synthase, including treatment for diabetes” (MitoKor, priority 1999, published 2003).
# Where “and” joins values, the source holds several entries; their conditions need not be identical. Equal entries are not always repeated. Ends that are not written are not given here.
# Experiments:
# F0-F1-ATPase = target: T1, F0-F1-ATPase (Bos taurus, UniProt P00829+P19483); test: ATP hydrolysis by purified F0-F1-ATPase; type: biochemical; conditions: bovine cardiac F0-F1-ATPase
# T1 construct: F0-F1 ATPase complexes and F1 ATPase subcomplexes were isolated from bovine cardiac samples; from tissue; host or cells: bovine heart (from alkaline submitochondrial particles, method of Walker et al. 1995)
# Procedure: (§1) F0-F1 ATPase complexes and F1 ATPase subcomplexes were isolated from bovine cardiac samples essentially according to the method of Walker et al. (Methods in Enzymology 260:163-190, 1995), with the exception that, instead of preparing SMPs (submitochondrial particles) at neutral pH, ASMPs (alkaline submitochondrial particles; see Rouslin and Broge, Anal. Biochem. 222:68-75, 1994) were prepared from bovine heart by sonication in a basic solution. The ASMPs were extracted with chloroform and used to prepare F0-F1 ATPase and F1 ATPase according to the method of Walker et al. (Methods in Enzymology 260:163-190, 1995).
# (§2) One assay for ATPase activity involves measuring ATP hydrolysis according to methods known in the art (Walker et al., Methods in Enzymology 260:163-190, 1995; Rouslin and Broge, Anal. Biochem. 222:68-75, 1994). Such assays can be performed using purified F0-F1 ATPase complexes or F1 ATPase subcomplexes, or using alkaline submitochondrial particles (ASMPs).
# In like fashion, the two IF1 polypeptide derivatives were tested for their ability to inhibit the purified F1-ATPase and F0-F1-ATPase. The results (FIG. 5) indicate that both synthetic polypeptides inhibited the F1 ATPase. […]
# INS-1 cells [1] = test: Mitochondrial DNA content of INS-1 cells by slot blot with COX-I probe; conditions: for effect on mtDNA content: INS-1 cells incubated for seven days with nucleoside analog
# INS-1 cells [2] = test: Glucose-responsive insulin secretion by INS-1 cells depleted of mtDNA; type: cell-based, rat; conditions: cells treated with ddC (10 μM) for over 20 days; any glucose level tested
# Procedure: INS-1 cells, or ρ^0 INS-1 cells generated using ddC as described above, were seeded into 12-well plates containing RPMI media supplemented as described at 0.5×10^6 cells/well and cultured at 37° C., 5% CO2 for 2 days. Cells (0.7×10^6 cells/well were rinsed with glucose-free KRH buffer (134 mM NaCl, 4.7 mM KCl, 1.2 mM KH2PO4, 1.2 mM MgSO4, 1.0 mM CaCl2, 10 mM HEPES, 10 mM NaHCO3, 0.5% BSA), then incubated in the same buffer for 1 hr at 37° C. in a humidified 5% CO2/95% air atmosphere. Fresh KRH buffer containing 0.5 mM isobutylmethyl xanthine and the following secretagogues was added: 5 mM glucose, 10 mM glucose, 20 mM glucose, 5 mM KCl or 20 mM KCl. After an additional 1 hr at 37° C., 5% CO2 the culture supernatants were collected. Insulin concentrations in the supernatants were measured and normalized to cell number using an insulin-specific radioimmunoassay kit (ICN Biochemicals, Irvine, Calif.) according to the manufacturer's instructions.
# purified F1-ATPase = target: T2, purified F1-ATPase (Bos taurus, UniProt P00829+P19483); test: ATP hydrolysis by purified F1-ATPase; type: biochemical; conditions: bovine cardiac F1-ATPase; read-out: IC50 for inhibition of ATP hydrolysis by purified F1-ATPase
# T2 construct: F1 ATPase subcomplexes were isolated from bovine cardiac samples; from tissue; host or cells: bovine heart (alkaline submitochondrial particles, chloroform extraction, method of Walker et al. 1995)
# Procedure: as §1, §2
# In an initial experiment to validate the reagents and assay system, Aurovertin-B was used as a positive control. This antibiotic binds to and inhibits the activity of bacterial and mitochondrial ATPases (van Raaij et al., Proc. Natl. Acad. Sci. US.A. 93:14 6913-14 6917, 1996). The purified F1-ATPase described in the preceding Example was treated with varying concentrations of Aurovertin-B, and ATP hydrolyis was measured.
compound,measurement,setting,value
LAALKKHHEDEIDHHSK [IF1(42-58)],IC50,F0-F1-ATPase; read-out: IC50 for inhibition of purified F0-F1-ATPase,~0.18 µM and 0.18 µM
"O=c1[nH]cnc2c1ncn2[C@H]1CC[C@@H](CO)O1 [ddI, 2′3′-dideoxyinosine]",effect on mtDNA content,INS-1 cells [1],decreased mtDNA content in a dose-dependent fashion
FGKREKAEEDRYFREKTREQLAALK [IF1(22-46)],IC50 for inhibition of purified F0-F1-ATPase,F0-F1-ATPase,no effect
Cc1cn([C@H]2C=C[C@@H](CO)O2)c(=O)[nH]c1=O [d4T],effect on mtDNA content,INS-1 cells [1],decreased mtDNA content in a dose-dependent fashion
"Nc1ccn([C@H]2CC[C@@H](CO)O2)c(=O)n1 [ddC, 2′3′-dideoxycytidine]",glucose stimulated insulin secretion,INS-1 cells [2],not observed
same,effect on mtDNA content,INS-1 cells [1],decreased mtDNA content in a dose-dependent fashion
same,mtDNA detection,"INS-1 cells [1]; INS-1 cells incubated with 25 ∥M ddC, after 21 days",undetectable
same,IC50,"INS-1 cells [1]; read-out: IC50 for decrease of mtDNA content, INS-1 cells, seven days",~50 µM
CC[C@H]1O[C@]2(C)[C@H](OC(C)=O)[C@@]1(C)O[C@@H](/C=C/C=C/C=C/c1oc(=O)cc(OC)c1C)[C@@H]2O [Aurovertin-B],IC50,purified F1-ATPase,0.85 µM
